Experimental findings from article PMC10904736, “A c-di-GMP signaling module controls responses to iron in Pseudomonas aeruginosa” (Nature Communications, 2024) are described below.

The target in the test is T1, ImcA (PA1851) (Pseudomonas aeruginosa, UniProt Q9I2P4).
T1 construct: full-length membrane protein (6TM L47-E231, GGDEF R241-A393), expressed in E. coli BL21(DE3), DDM-solubilised, Strep-Tactin purified, homodimer
The test is described as follows: HPLC of c-di-GMP formation. As to conditions: 200 µM GTP; 50 mM Tris-HCl pH 8.0, 150 mM NaCl, 0.025% DDM; 37 °C, 2 h; without IsmP. Type of test: biochemical.

T1 sequence (Q9I2P4 entry or part of it): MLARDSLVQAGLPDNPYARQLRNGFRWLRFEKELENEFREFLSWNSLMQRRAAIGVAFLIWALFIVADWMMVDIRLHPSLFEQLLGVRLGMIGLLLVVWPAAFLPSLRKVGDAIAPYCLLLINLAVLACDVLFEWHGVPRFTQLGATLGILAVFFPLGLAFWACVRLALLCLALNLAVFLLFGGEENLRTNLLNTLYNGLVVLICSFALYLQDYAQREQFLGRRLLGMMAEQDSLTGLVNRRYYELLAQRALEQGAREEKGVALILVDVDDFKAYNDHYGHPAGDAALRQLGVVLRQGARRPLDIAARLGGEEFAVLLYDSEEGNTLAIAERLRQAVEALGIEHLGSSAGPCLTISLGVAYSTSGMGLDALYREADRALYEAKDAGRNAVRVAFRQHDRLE

`Nc1nc2c(ncn2[C@@H]2O[C@H](COP(=O)(O)OP(=O)(O)OP(=O)(O)O)[C@@H](O)[C@H]2O)c(=O)[nH]1` [GTP]: the “HPLC of c-di-GMP formation” value is “GTP was absolutely converted to c-di-GMP when GTP was incubated with ImcA alone”.
